From patent US20240156996A1, “BIOCOMPATIBLE RADIONUCLIDE-CONTAINING COMPOSITIONS AND METHODS OF USE” (priority 2022, published 2024)

Assay: Encapsulation efficiency of 225Ac within PLGA nanoparticles (γ-ray spectroscopy after washing)
Type: physicochemical
Details: 95:5, 90:10, 75:25 MeOH:DI H2O; FIG. 2
Method: A double-emulsion solvent evaporation method was adapted for the synthesis of PLGA-chelator compound radioisotope complex. The main differences include: (1) using a cup-horn sonicator to generate emulsions and (2) decreasing the reagent volumes to minimize the generation of radiological waste. In a typical synthesis, 100 μL of PLGA dissolved in EtOAc at 40 mg/mL were mixed with 10 μL of 225Ac-chelator compound radioisotope complex in a polar solution (i.e., DI H2O, MeOH, or a mixture of both) within an Eppendorf tube. This mixture was sonicated for 30 s in a cup-horn sonicator to generate a water/oil emulsion. […]
As described above, PLGA nanoparticles were synthesized encapsulating free ^225Ac or ^225Ac-BLPhen complex in a methanol/deionized water (MeOH/DI H2O) mixture. […] The encapsulation efficiency of ^225Ac was determined after washing the PLGA nanoparticle suspensions three times with DI H2O. […] The PLGA nanoparticle suspension, the supernatant, and the Eppendorf tube used for sonication were assayed using γ-ray spectroscopy on a high purity germanium detector coupled to a PC-based multichannel analyzer to account for total radioactivity distribution. […] Energy and efficiency calibrations were determined by γ-ray sources traceable to the National Institute of Standards and Technology.

**Q.** Which “effect of increasing the water content in the MeOH/DI H2O mixture on encapsulation efficiency within PLGA nanoparticles” value does the source give for `[225Ac]` [^225Ac, actinium-225] here?
**A.** The value was “decreased the encapsulation efficiency”.
